Assay results published in US12582693B2, “Glutathione trisulfide (GSSSG) in neuroprotection” (The General Hospital Corporation, priority 2020, dated 2026).

Experiments:
SH-SY5Y cells = assay: MPP+-induced SH-SY5Y cell death, cell viability by crystal violet assay; type: cell-based; settings: MPP+ 2 mM, DMEM/F12 (20% FBS), 37° C., 24 h
Protocol: The effects of GSSSG on 1-methyl-4-phenylpyridinium (MPP+)-induced neuronal (SH-SY5Y cell) death were evaluated. MPP+-poisoning is an in vitro model of Parkinson's disease.
SH-SY5Y cells were incubated with or without MPP+ (2 mM) in DMEM/F12 (20% FBS) with or without drugs at 37° C. for 24 h. Cell viability was measured using the crystal violet assay.

mice subjected to SCI = assay: Murine model of spinal cord ischemia (SCI) with delayed paraplegia; motor function by Basso Mouse Scale and survival after preconditioning; type: in vivo; settings: preconditioning 200 mg/kg IP daily for 4 days in DMSO, vs DMSO alone
Protocol: Briefly, under anesthesia and mechanical ventilation via endotracheal intubation, SCI was induced by placing the first clip on the aortic arch between the left common carotid artery and the left subclavian artery and the second clip on the origin of the left subclavian artery. The completeness of the occlusion was ascertained by an immediate and sustained loss of any detectable pulse pressure in the femoral artery pressure tracing. After 5 min of ischemia, the clips were removed, and the chest was closed in layers. At 10 minutes of reperfusion, the arterial catheter was removed, incisions were closed, and animals were allowed to recover from anesthesia. Temperature of erector spinae muscle was monitored and maintained at 37.5° C. during whole surgery until recovery from anesthesia. In sham-operated mice, whole surgical procedure was performed as described, but no clips were applied. Motor function was quantified serially at pre-SCI, 24, 48, and 72 h after spinal cord ischemia by the Basso Mouse Scale (BMS) (Basso et al., 2006; Kakinohana et al., 2011). The maximum deficit is indicated by a score of 0. Although BMS score<6 (0 to 5) indicates paraplegia, BMS score>6 (6 to 9) indicates ability to walk.
To examine preventive effects of GSSSG against neurofunctional deficit after SCI, mice were subjected to preconditioning with GSSSG treatment before induction of SCI. […]

Row | SMILES | Protection from MPP+-induced cell death (cell viability) (SH-SY5Y cells) | Motor function (Basso Mouse Scale, BMS) / paraplegia after SCI (mice subjected to SCI; SCI 24 h after last administration, BMS up to 72 h) | Survival rate of mice after SCI (mice subjected to SCI)
1 | N[C@@H](CCC(=O)N[C@@H](CSSSC[C@H](NC(=O)CC[C@H](N)C(=O)O)C(=O)NCC(=O)O)C(=O)NCC(=O)O)C(=O)O [GSSSG, Glutathione trisulfide] | protective effect | prevented motor functional deficit and paraplegia | did not change survival rate
2 | [Na+].[Na+].[S-2] [Na2S, reference compound] | but not Na2S, protected | – | –
